Results from ChEMBL document CHEMBL1144896 (2003).

Test system: BJ
Assay: hTERT-SEAP (Human telomerase reverse transcriptase-SEAP) activity in immortalized hTERT-BJI at 2.2 uM concentration and level of cell viability determined in MTT assay
Format: functional

Row | Structure (SMILES) | Relative viability [%]
1 | O=C(Oc1cccc2c1C(=O)c1cccc(OC(=O)c3ccccc3)c1C2=O)c1ccccc1 | 103

Test system: BJ
Assay: Compound was tested for human telomerase reverse transcriptase-SEAP (hTERT-SEAP) activity in immortalized hTERT-BJI at 220.0 uM concentration
Format: functional

Row | Structure (SMILES) | Relative SEAP activity [%]
2 | O=C(Oc1cccc2c1C(=O)c1cccc(OC(=O)c3ccccc3)c1C2=O)c1ccccc1 | 84

Test system: BJ
Assay: hTERT-SEAP (Human telomerase reverse transcriptase-SEAP) activity in immortalized hTERT-BJI at 220.0 uM concentration and level of cell viability determined in MTT assay
Format: functional

Row | Structure (SMILES) | Relative viability [%]
3 | O=C(Oc1cccc2c1C(=O)c1cccc(OC(=O)c3ccccc3)c1C2=O)c1ccccc1 | 51

Test system: BJ
Assay: hTERT-SEAP (Human telomerase reverse transcriptase-SEAP) activity in immortalized hTERT-BJI at 210.0 uM concentration and level of cell viability determined in MTT assay
Format: functional

Row | Structure (SMILES) | Relative viability [%]
4 | O=C1c2cccc(SCCCCCCO)c2C(=O)c2cccc(SCCCCCCO)c21 | 40
5 | Cc1ccccc1C(=O)Oc1cccc2c1C(=O)c1cccc(OC(=O)c3ccccc3C)c1C2=O | 39
6 | O=C(Cc1ccccc1)Oc1cccc2c1C(=O)c1cccc(OC(=O)Cc3ccccc3)c1C2=O | 64
7 | Cc1cccc(C(=O)Oc2cccc3c2C(=O)c2cccc(OC(=O)c4cccc(C)c4)c2C3=O)c1 | 47
8 | Cc1ccc(C(=O)Oc2cccc3c2C(=O)c2cccc(OC(=O)c4ccc(C)cc4)c2C3=O)cc1 | 56

Test system: NCI-H1299
Assay: Compound was tested for human telomerase reverse transcriptase-SEAP (hTERT-SEAP) activity in non-small cell lung cancer H1299 cell at 2.1 uM concentration
Format: functional

Row | Structure (SMILES) | Relative SEAP activity [%]
9 | O=C1c2cccc(SCCCCCCO)c2C(=O)c2cccc(SCCCCCCO)c21 | 110
10 | Cc1ccccc1C(=O)Oc1cccc2c1C(=O)c1cccc(OC(=O)c3ccccc3C)c1C2=O | 97
11 | O=C(Cc1ccccc1)Oc1cccc2c1C(=O)c1cccc(OC(=O)Cc3ccccc3)c1C2=O | 98
12 | Cc1cccc(C(=O)Oc2cccc3c2C(=O)c2cccc(OC(=O)c4cccc(C)c4)c2C3=O)c1 | 104
13 | Cc1ccc(C(=O)Oc2cccc3c2C(=O)c2cccc(OC(=O)c4ccc(C)cc4)c2C3=O)cc1 | 98

Test system: NCI-H1299
Assay: hTERT-SEAP (Human telomerase reverse transcriptase-SEAP) activity in non-small cell lung cancer H1299 cell at 2.2 uM concentration and level of cell viability determined in MTT assay
Format: functional

Row | Structure (SMILES) | Relative viability [%]
14 | O=C(Oc1cccc2c1C(=O)c1cccc(OC(=O)c3ccccc3)c1C2=O)c1ccccc1 | 99

Test system: NCI-H1299
Assay: hTERT-SEAP (Human telomerase reverse transcriptase-SEAP) activity in non-small cell lung cancer H1299 cell at 220.0 uM concentration and level of cell viability determined in MTT assay
Format: functional

Row | Structure (SMILES) | Relative viability [%]
15 | O=C(Oc1cccc2c1C(=O)c1cccc(OC(=O)c3ccccc3)c1C2=O)c1ccccc1 | 33

Test system: NCI-H1299
Assay: hTERT-SEAP (Human telomerase reverse transcriptase-SEAP) activity in non-small cell lung cancer H1299 cell at 2.1 uM concentration and level of cell viability determined in MTT assay
Format: functional

Row | Structure (SMILES) | Relative viability [%]
16 | O=C1c2cccc(SCCCCCCO)c2C(=O)c2cccc(SCCCCCCO)c21 | 99
17 | Cc1ccccc1C(=O)Oc1cccc2c1C(=O)c1cccc(OC(=O)c3ccccc3C)c1C2=O | 72
18 | O=C(Cc1ccccc1)Oc1cccc2c1C(=O)c1cccc(OC(=O)Cc3ccccc3)c1C2=O | 91
19 | Cc1cccc(C(=O)Oc2cccc3c2C(=O)c2cccc(OC(=O)c4cccc(C)c4)c2C3=O)c1 | 26
20 | Cc1ccc(C(=O)Oc2cccc3c2C(=O)c2cccc(OC(=O)c4ccc(C)cc4)c2C3=O)cc1 | 61

Test system: BJ
Assay: Compound was tested for human telomerase reverse transcriptase-SEAP (hTERT-SEAP) activity in immortalized hTERT-BJI at 2.2 uM concentration
Format: functional

Row | Structure (SMILES) | Relative SEAP activity [%]
21 | O=C(Oc1cccc2c1C(=O)c1cccc(OC(=O)c3ccccc3)c1C2=O)c1ccccc1 | 137

Test system: BJ
Assay: Compound was tested for human telomerase reverse transcriptase-SEAP (hTERT-SEAP) activity in immortalized hTERT-BJI at 22 uM concentration
Format: functional

Row | Structure (SMILES) | Relative SEAP activity [%]
22 | O=C(Oc1cccc2c1C(=O)c1cccc(OC(=O)c3ccccc3)c1C2=O)c1ccccc1 | 122

Test system: NCI-H1299
Assay: Compound was tested for human telomerase reverse transcriptase-SEAP (hTERT-SEAP) activity in non-small cell lung cancer H1299 cell at 22 uM concentration
Format: functional

Row | Structure (SMILES) | Relative SEAP activity [%]
23 | O=C(Oc1cccc2c1C(=O)c1cccc(OC(=O)c3ccccc3)c1C2=O)c1ccccc1 | 94

Test system: NCI-H1299
Assay: hTERT-SEAP (Human telomerase reverse transcriptase-SEAP) activity in non-small cell lung cancer H1299 cell at 210.0 uM concentration and level of cell viability determined in MTT assay
Format: functional

Row | Structure (SMILES) | Relative viability [%]
24 | O=C1c2cccc(SCCCCCCO)c2C(=O)c2cccc(SCCCCCCO)c21 | 36
25 | Cc1ccccc1C(=O)Oc1cccc2c1C(=O)c1cccc(OC(=O)c3ccccc3C)c1C2=O | 45
26 | O=C(Cc1ccccc1)Oc1cccc2c1C(=O)c1cccc(OC(=O)Cc3ccccc3)c1C2=O | 30
27 | Cc1cccc(C(=O)Oc2cccc3c2C(=O)c2cccc(OC(=O)c4cccc(C)c4)c2C3=O)c1 | 29
28 | Cc1ccc(C(=O)Oc2cccc3c2C(=O)c2cccc(OC(=O)c4ccc(C)cc4)c2C3=O)cc1 | 32

Test system: NCI-H1299
Assay: Compound was tested for human telomerase reverse transcriptase-SEAP (hTERT-SEAP) activity in non-small cell lung cancer H1299 cell at 2.2 uM concentration
Format: functional

Row | Structure (SMILES) | Relative SEAP activity [%]
29 | O=C(Oc1cccc2c1C(=O)c1cccc(OC(=O)c3ccccc3)c1C2=O)c1ccccc1 | 88

Test system: NCI-H1299
Assay: Compound was tested for human telomerase reverse transcriptase-SEAP (hTERT-SEAP) activity in non-small cell lung cancer H1299 cell at 21 uM concentration
Format: functional

Row | Structure (SMILES) | Relative SEAP activity [%]
30 | O=C1c2cccc(SCCCCCCO)c2C(=O)c2cccc(SCCCCCCO)c21 | 100
31 | Cc1ccccc1C(=O)Oc1cccc2c1C(=O)c1cccc(OC(=O)c3ccccc3C)c1C2=O | 91
32 | O=C(Cc1ccccc1)Oc1cccc2c1C(=O)c1cccc(OC(=O)Cc3ccccc3)c1C2=O | 101
33 | Cc1cccc(C(=O)Oc2cccc3c2C(=O)c2cccc(OC(=O)c4cccc(C)c4)c2C3=O)c1 | 116
34 | Cc1ccc(C(=O)Oc2cccc3c2C(=O)c2cccc(OC(=O)c4ccc(C)cc4)c2C3=O)cc1 | 95

Test system: BJ
Assay: Compound was tested for human telomerase reverse transcriptase-SEAP (hTERT-SEAP) activity in immortalized hTERT-BJI at 210.0 uM concentration
Format: functional

Row | Structure (SMILES) | Relative SEAP activity [%]
35 | O=C1c2cccc(SCCCCCCO)c2C(=O)c2cccc(SCCCCCCO)c21 | 75
36 | Cc1ccccc1C(=O)Oc1cccc2c1C(=O)c1cccc(OC(=O)c3ccccc3C)c1C2=O | 94
37 | O=C(Cc1ccccc1)Oc1cccc2c1C(=O)c1cccc(OC(=O)Cc3ccccc3)c1C2=O | 100
38 | Cc1cccc(C(=O)Oc2cccc3c2C(=O)c2cccc(OC(=O)c4cccc(C)c4)c2C3=O)c1 | 86
39 | Cc1ccc(C(=O)Oc2cccc3c2C(=O)c2cccc(OC(=O)c4ccc(C)cc4)c2C3=O)cc1 | 99

Test system: BJ
Assay: hTERT-SEAP (Human telomerase reverse transcriptase-SEAP) activity in immortalized hTERT-BJI at 21 uM concentration and level of cell viability determined in MTT assay
Format: functional

Row | Structure (SMILES) | Relative viability [%]
40 | O=C1c2cccc(SCCCCCCO)c2C(=O)c2cccc(SCCCCCCO)c21 | 70
41 | Cc1ccccc1C(=O)Oc1cccc2c1C(=O)c1cccc(OC(=O)c3ccccc3C)c1C2=O | 82
42 | O=C(Cc1ccccc1)Oc1cccc2c1C(=O)c1cccc(OC(=O)Cc3ccccc3)c1C2=O | 97
43 | Cc1cccc(C(=O)Oc2cccc3c2C(=O)c2cccc(OC(=O)c4cccc(C)c4)c2C3=O)c1 | 54
44 | Cc1ccc(C(=O)Oc2cccc3c2C(=O)c2cccc(OC(=O)c4ccc(C)cc4)c2C3=O)cc1 | 98

Test system: BJ
Assay: hTERT-SEAP (Human telomerase reverse transcriptase-SEAP) activity in immortalized hTERT-BJI at 22 uM concentration and level of cell viability determined in MTT assay
Format: functional

Row | Structure (SMILES) | Relative viability [%]
45 | O=C(Oc1cccc2c1C(=O)c1cccc(OC(=O)c3ccccc3)c1C2=O)c1ccccc1 | 87

Test system: NCI-H1299
Assay: Compound was tested for human telomerase reverse transcriptase-SEAP (hTERT-SEAP) activity in non-small cell lung cancer H1299 cell at 220.0 uM concentration
Format: functional

Row | Structure (SMILES) | Relative SEAP activity [%]
46 | O=C(Oc1cccc2c1C(=O)c1cccc(OC(=O)c3ccccc3)c1C2=O)c1ccccc1 | 86

Test system: NCI-H1299
Assay: Compound was tested for human telomerase reverse transcriptase-SEAP (hTERT-SEAP) activity in non-small cell lung cancer H1299 cell at 210.0 uM concentration
Format: functional

Row | Structure (SMILES) | Relative SEAP activity [%]
47 | O=C1c2cccc(SCCCCCCO)c2C(=O)c2cccc(SCCCCCCO)c21 | 68
48 | Cc1ccccc1C(=O)Oc1cccc2c1C(=O)c1cccc(OC(=O)c3ccccc3C)c1C2=O | 90
49 | O=C(Cc1ccccc1)Oc1cccc2c1C(=O)c1cccc(OC(=O)Cc3ccccc3)c1C2=O | 142
50 | Cc1cccc(C(=O)Oc2cccc3c2C(=O)c2cccc(OC(=O)c4cccc(C)c4)c2C3=O)c1 | 110
51 | Cc1ccc(C(=O)Oc2cccc3c2C(=O)c2cccc(OC(=O)c4ccc(C)cc4)c2C3=O)cc1 | 95

Test system: NCI-H1299
Assay: hTERT-SEAP (Human telomerase reverse transcriptase-SEAP) activity in non-small cell lung cancer H1299 cell at 21 uM concentration and level of cell viability determined in MTT assay
Format: functional

Row | Structure (SMILES) | Relative viability [%]
52 | O=C1c2cccc(SCCCCCCO)c2C(=O)c2cccc(SCCCCCCO)c21 | 94
53 | Cc1ccccc1C(=O)Oc1cccc2c1C(=O)c1cccc(OC(=O)c3ccccc3C)c1C2=O | 36
54 | O=C(Cc1ccccc1)Oc1cccc2c1C(=O)c1cccc(OC(=O)Cc3ccccc3)c1C2=O | 53
55 | Cc1cccc(C(=O)Oc2cccc3c2C(=O)c2cccc(OC(=O)c4cccc(C)c4)c2C3=O)c1 | 28
56 | Cc1ccc(C(=O)Oc2cccc3c2C(=O)c2cccc(OC(=O)c4ccc(C)cc4)c2C3=O)cc1 | 33

Test system: BJ
Assay: Compound was tested for human telomerase reverse transcriptase-SEAP (hTERT-SEAP) activity in immortalized hTERT-BJI at 21 uM concentration
Format: functional

Row | Structure (SMILES) | Relative SEAP activity [%]
57 | O=C1c2cccc(SCCCCCCO)c2C(=O)c2cccc(SCCCCCCO)c21 | 128
58 | Cc1ccccc1C(=O)Oc1cccc2c1C(=O)c1cccc(OC(=O)c3ccccc3C)c1C2=O | 120
59 | O=C(Cc1ccccc1)Oc1cccc2c1C(=O)c1cccc(OC(=O)Cc3ccccc3)c1C2=O | 125
60 | Cc1cccc(C(=O)Oc2cccc3c2C(=O)c2cccc(OC(=O)c4cccc(C)c4)c2C3=O)c1 | 124
61 | Cc1ccc(C(=O)Oc2cccc3c2C(=O)c2cccc(OC(=O)c4ccc(C)cc4)c2C3=O)cc1 | 126

Test system: NCI-H1299
Assay: hTERT-SEAP (Human telomerase reverse transcriptase-SEAP) activity in non-small cell lung cancer H1299 cell at 22 uM concentration and level of cell viability determined in MTT assay
Format: functional

Row | Structure (SMILES) | Relative viability [%]
62 | O=C(Oc1cccc2c1C(=O)c1cccc(OC(=O)c3ccccc3)c1C2=O)c1ccccc1 | 60

Test system: BJ
Assay: Compound was tested for human telomerase reverse transcriptase-SEAP (hTERT-SEAP) activity in immortalized hTERT-BJI at 2.1 uM concentration
Format: functional

Row | Structure (SMILES) | Relative SEAP activity [%]
63 | O=C1c2cccc(SCCCCCCO)c2C(=O)c2cccc(SCCCCCCO)c21 | 140
64 | Cc1ccccc1C(=O)Oc1cccc2c1C(=O)c1cccc(OC(=O)c3ccccc3C)c1C2=O | 129
65 | O=C(Cc1ccccc1)Oc1cccc2c1C(=O)c1cccc(OC(=O)Cc3ccccc3)c1C2=O | 129
66 | Cc1cccc(C(=O)Oc2cccc3c2C(=O)c2cccc(OC(=O)c4cccc(C)c4)c2C3=O)c1 | 141
67 | Cc1ccc(C(=O)Oc2cccc3c2C(=O)c2cccc(OC(=O)c4ccc(C)cc4)c2C3=O)cc1 | 130
